Test results as given in PubChem BioAssay (NCI).
“And” between values parts separate entries of the source, which are not always exact repeats. Equal entries are not always repeated.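 96-well plates; 48 h exposure; 5 concentrations. Endpoints by linear interpolation between flanking doses. Not reached: highest tested concentration assigned. Here, GI50 denotes the concentration required for 50% inhibition of growth. TGI: concentration producing complete growth inhibition.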

What was measured:
Assay in all cases: inhibition of tumour cell growth, NCI panel, 48 h
[1] = tested on: DU-145 prostate
[2] = tested on: MALME-3M melanoma
[3] = tested on: NCI-H522 lung
[4] = tested on: SW-620 colon
[5] = tested on: U251 CNS
[6] = tested on: UO-31 renal
[7] = tested on: OVCAR-3 ovarian
[8] = tested on: KM12 colon
[9] = tested on: SK-MEL-2 melanoma
[10] = tested on: HCC-2998 colon

SMILES: O=C1CC2OCC=C3CN4CCC56c7ccccc7N1C5C2C3CC46O (stereo not drawn)
- TGI [1]: > 100 µM
- TGI [2]: > 100 µM
- TGI [3]: > 100 µM
- TGI [4]: > 100 µM
- TGI [5]: > 100 µM
- TGI [6]: > 100 µM
- TGI [7]: > 100 µM
- TGI [8]: > 100 µM
- TGI [9]: > 100 µM
- TGI [10]: > 100 µM

SMILES: O=C1NC(=S)S/C1=C\c1cn(-c2ccccc2)nc1-c1ccccc1
- GI50 [1]: 12.6 µM
- TGI [1]: > 100 µM
- GI50 [2]: 3.84 µM
- TGI [2]: 13.1 µM
- GI50 [3]: 2.96 µM
- TGI [3]: 55.1 µM
- GI50 [4]: 19.6 µM
- TGI [4]: > 100 µM
- GI50 [5]: 5.54 µM
- TGI [5]: 21.2 µM
- GI50 [6]: 4.39 µM
- TGI [6]: 25.2 µM
- GI50 [7]: 11.6 µM
- TGI [7]: 29 µM
- GI50 [8]: 6.24 µM
- TGI [8]: 21.7 µM
- GI50 [9]: 4.18 µM
- TGI [9]: 19.4 µM
- GI50 [10]: 6.05 µM
- TGI [10]: 47.1 µM

SMILES: C#Cc1cccc(Nc2ncnc3cc(NC(=O)CCl)ccc23)c1
- GI50 [1]: 2.8 µM
- TGI [1]: 5.91 µM
- GI50 [2]: 2.8 µM
- TGI [2]: 6.65 µM
- GI50 [3]: 0.414 µM
- TGI [3]: 0.894 µM
- GI50 [4]: 0.832 µM
- TGI [4]: 3.08 µM
- GI50 [5]: 0.789 µM
- TGI [5]: 2.92 µM
- GI50 [6]: 2.55 µM
- TGI [6]: 5.6 µM
- GI50 [7]: 1.37 µM
- TGI [7]: 5.42 µM
- GI50 [8]: 3.29 µM
- TGI [8]: 7.13 µM
- GI50 [9]: 3.82 µM
- TGI [9]: 7.77 µM
- GI50 [10]: 4.16 µM
- TGI [10]: 8.46 µM

SMILES: COc1cc(/C=C2\C(=O)N(Cc3ccc(Cl)cc3)c3ccccc32)cc(OC)c1OC
- GI50 [1]: 2.05 µM
- TGI [1]: 5.04 µM
- GI50 [2]: 3.73 µM
- TGI [2]: 16.3 µM
- GI50 [3]: 2.2 µM
- TGI [3]: 5.93 µM
- GI50 [4]: 1.78 µM
- TGI [4]: 3.53 µM
- GI50 [5]: 1.75 µM
- TGI [5]: 3.44 µM
- GI50 [6]: 2.06 µM
- TGI [6]: 6.8 µM
- GI50 [7]: 1.57 µM
- TGI [7]: 3.31 µM
- GI50 [8]: 2.19 µM
- TGI [8]: 5.7 µM
- GI50 [9]: 4.86 µM
- TGI [9]: 18 µM
- GI50 [10]: 1.95 µM
- TGI [10]: 4.28 µM

SMILES: O=C(Nc1ccc(Oc2ccc3nc(NC(=O)c4ccco4)[nH]c3c2)cc1)Nc1cc(C(F)(F)F)ccc1F
- GI50 [1]: 2.92 µM
- TGI [1]: 10.6 µM
- GI50 [2]: 0.699 µM
- TGI [2]: 5.31 µM
- GI50 [3]: 3.03 µM
- TGI [3]: 9.55 µM
- GI50 [4]: 1.25 µM
- TGI [4]: > 17.8 µM
- GI50 [5]: 3.33 µM
- TGI [5]: > 15.3 µM
- GI50 [6]: 0.874 µM
- TGI [6]: 5.27 µM
- GI50 [7]: 2.9 µM
- TGI [7]: 7.22 µM
- GI50 [8]: 0.0178 µM
- TGI [8]: 4.31 µM
- GI50 [9]: 0.668 µM
- TGI [9]: 4.37 µM
- GI50 [10]: 2.44 µM
- TGI [10]: > 20.1 µM

SMILES: COc1cc(CNCCCCCCN2C(=O)c3cccc4cccc(c34)C2=O)ccc1O
- GI50 [1]: 6.08 µM
- TGI [1]: 18.9 µM
- GI50 [2]: 2.02 µM
- TGI [2]: 4.63 µM
- GI50 [3]: 2.32 µM
- TGI [3]: 7.97 µM
- GI50 [4]: 4.1 µM
- TGI [4]: 17.2 µM
- GI50 [5]: 4.51 µM
- TGI [5]: 17.3 µM
- GI50 [6]: 2.65 µM
- TGI [6]: 15.2 µM
- GI50 [7]: 4.11 µM
- TGI [7]: 16.6 µM
- GI50 [8]: 5.57 µM
- TGI [8]: 18.9 µM
- GI50 [9]: 5.56 µM
- TGI [9]: 18.2 µM
- GI50 [10]: 11.2 µM
- TGI [10]: 24.6 µM

SMILES: COC(=O)NC1C(C)OC(OC2C/C=C(/C)C3C=CC4C(OC5CC(OC6CCC(OC7CC(O)C(OC8CCC(O)C(C)O8)C(C)O7)C(C)O6)C(OC(C)=O)C(C)O5)C(C)CC(C)C4C3(C)/C(O)=C3/C(=O)OC4(CC(C=O)=CC(O)C4/C=C\2C)C3=O)CC1(C)[N+](=O)[O-] (stereo not drawn)
- TGI [1]: 5.07 µM
- GI50 [2]: 0.12 µM
- TGI [2]: 1.62 µM and 0.292 µM
- GI50 [3]: 0.222 µM
- TGI [3]: 2.8 µM and 0.645 µM
- GI50 [4]: 0.212 µM
- TGI [4]: 4.74 µM and 1.11 µM
- GI50 [5]: 0.179 µM
- TGI [5]: 0.901 µM and 0.499 µM
- GI50 [6]: 0.254 µM
- TGI [6]: 3.76 µM and 0.521 µM
- GI50 [7]: 0.484 µM
- TGI [7]: 2.7 µM and 2.12 µM
- GI50 [8]: 0.0714 µM
- TGI [8]: 2.04 µM and 0.337 µM
- GI50 [9]: 0.0551 µM
- GI50 [10]: 0.208 µM
- TGI [10]: 1.95 µM and 0.453 µM

SMILES: O=C1Nc2ccc(Cl)cc2/C1=C\c1c(-c2ccc(Cl)cc2)nc2sc(C3CC3)nn12
- GI50 [1]: 5.73 µM
- TGI [1]: 17.6 µM
- GI50 [2]: 2.9 µM
- TGI [2]: 8.79 µM
- GI50 [3]: 4.5 µM
- TGI [3]: 26.3 µM
- GI50 [4]: 7.65 µM
- TGI [4]: 55 µM
- GI50 [5]: 3.29 µM
- TGI [5]: 13.1 µM
- GI50 [6]: 2.63 µM
- TGI [6]: 14.8 µM
- GI50 [7]: 4.16 µM
- TGI [7]: 15.2 µM
- GI50 [8]: 15.8 µM
- TGI [8]: > 100 µM
- GI50 [9]: 4.9 µM
- TGI [9]: 19.8 µM
- GI50 [10]: 6.94 µM
- TGI [10]: 22.3 µM

SMILES: Cc1cc(=O)oc2ccc(OC/C=C3\CCC(=O)O3)cc12
- GI50 [1]: 3.62 µM
- TGI [1]: 17.7 µM
- GI50 [2]: 1.16 µM
- TGI [2]: 16.9 µM
- GI50 [3]: 1.65 µM
- TGI [3]: 3.57 µM
- GI50 [4]: 3.87 µM
- TGI [4]: 17.5 µM
- GI50 [5]: 12.2 µM
- TGI [5]: 24.6 µM
- GI50 [6]: 2.09 µM
- TGI [6]: 10.2 µM
- GI50 [7]: 3.59 µM
- TGI [7]: 18.4 µM
- GI50 [8]: 7.76 µM
- TGI [8]: 25.5 µM
- GI50 [9]: 10.7 µM
- TGI [9]: 30.6 µM
- GI50 [10]: 14.7 µM
- TGI [10]: 28.1 µM

SMILES: CCOCC1(COCC)CCC(c2[nH]ncc2CN(C)CCNC)CC1
- GI50 [1]: > 100 µM
- TGI [1]: > 100 µM
- GI50 [2]: > 100 µM
- TGI [2]: > 100 µM
- GI50 [3]: > 100 µM
- TGI [3]: > 100 µM
- GI50 [4]: > 100 µM
- TGI [4]: > 100 µM
- GI50 [5]: > 100 µM
- TGI [5]: > 100 µM
- GI50 [6]: > 100 µM
- TGI [6]: > 100 µM
- GI50 [7]: > 100 µM
- TGI [7]: > 100 µM
- GI50 [8]: > 100 µM
- TGI [8]: > 100 µM
- GI50 [9]: > 100 µM
- TGI [9]: > 100 µM
- GI50 [10]: > 100 µM
- TGI [10]: > 100 µM

SMILES: O=C(Nc1ccc(Oc2ccc(F)cc2)cc1)[C@@H]1C[C@@H](Cc2ccc(F)cc2)CN1C(=O)Cn1ccnn1
- GI50 [1]: 13.6 µM
- TGI [1]: > 85.7 µM
- GI50 [2]: 9.49 µM
- TGI [2]: 26.1 µM
- GI50 [3]: 5.01 µM
- TGI [3]: 19.3 µM
- GI50 [4]: 12.6 µM
- TGI [4]: 40 µM
- GI50 [5]: 4.79 µM
- TGI [5]: 22.2 µM
- GI50 [6]: 3.5 µM
- TGI [6]: 25.2 µM
- GI50 [7]: 8.12 µM
- TGI [7]: 26.7 µM
- GI50 [8]: 9.43 µM
- TGI [8]: 24.1 µM
- GI50 [9]: 8.05 µM
- TGI [9]: 23 µM
- GI50 [10]: 7.17 µM
- TGI [10]: 21.8 µM

SMILES: COc1cc2oc(-c3cccc(C(=O)Nc4ccc(Cl)cc4)c3)cc(=O)c2c(OC)c1OC
- GI50 [1]: 2.85 µM
- TGI [1]: > 100 µM
- GI50 [2]: 2.48 µM
- TGI [2]: 7.26 µM
- GI50 [3]: 1.73 µM
- TGI [3]: > 100 µM
- GI50 [4]: 4.87 µM
- TGI [4]: > 100 µM
- GI50 [5]: 4.08 µM
- TGI [5]: > 100 µM
- GI50 [6]: 2.85 µM
- TGI [6]: > 100 µM
- GI50 [7]: 3.6 µM
- TGI [7]: > 100 µM
- GI50 [8]: 2.37 µM
- TGI [8]: > 100 µM
- GI50 [9]: 2.96 µM
- TGI [9]: 9.22 µM
- GI50 [10]: 3.05 µM
- TGI [10]: > 100 µM

SMILES: O=C1/C(=C/c2ccc(Cl)c(Cl)c2)CN(C(=O)C(Cl)Cl)C/C1=C\c1ccc(Cl)c(Cl)c1
- GI50 [1]: 0.369 µM
- TGI [1]: 1.41 µM
- GI50 [2]: 0.237 µM
- TGI [2]: 0.669 µM
- GI50 [3]: 0.27 µM
- TGI [3]: 1.2 µM
- GI50 [4]: 0.0364 µM
- TGI [4]: 0.196 µM
- GI50 [5]: 0.0371 µM
- TGI [5]: 0.153 µM
- GI50 [6]: 0.133 µM
- TGI [6]: 0.267 µM
- GI50 [7]: 0.0571 µM
- TGI [7]: 0.237 µM
- GI50 [8]: 0.16 µM
- TGI [8]: 0.587 µM
- GI50 [9]: 0.801 µM
- TGI [9]: 3.14 µM
- GI50 [10]: 0.181 µM
- TGI [10]: 0.355 µM
